Results on 16 compounds are retold here after patent US12098153B2, “Small molecule inhibitors targeting Clostridioides difficile sporulation” (UNIVERSITY OF SOUTH FLORIDA, priority 2021, dated 2024).

T1 sequence (A0A9R0BM53 entry or part of it): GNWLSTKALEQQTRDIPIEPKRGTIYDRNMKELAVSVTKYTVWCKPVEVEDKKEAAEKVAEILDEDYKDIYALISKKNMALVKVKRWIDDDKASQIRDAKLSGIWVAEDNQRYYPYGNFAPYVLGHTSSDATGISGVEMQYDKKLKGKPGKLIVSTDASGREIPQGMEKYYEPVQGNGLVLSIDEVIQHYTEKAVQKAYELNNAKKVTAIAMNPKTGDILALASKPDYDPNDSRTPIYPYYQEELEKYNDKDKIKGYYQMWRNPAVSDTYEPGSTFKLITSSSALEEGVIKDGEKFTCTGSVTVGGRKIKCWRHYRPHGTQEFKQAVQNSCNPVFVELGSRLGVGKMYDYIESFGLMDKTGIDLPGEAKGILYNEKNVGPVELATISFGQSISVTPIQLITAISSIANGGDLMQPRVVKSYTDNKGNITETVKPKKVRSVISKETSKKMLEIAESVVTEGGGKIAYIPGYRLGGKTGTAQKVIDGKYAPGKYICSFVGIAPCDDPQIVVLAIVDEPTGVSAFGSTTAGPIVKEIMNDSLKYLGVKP

One test addresses T1, SpoVD (CdSpoVD, CDR20291_2544; soluble construct SpovD 38-583) (Clostridioides difficile, UniProt A0A9R0BM53).
T1 construct: pETGSTSUMO vector (NheI/XhoI), E. coli BL21(DE3) pLysS; fusion tag removed with ULP1
Description: Bacillin (bocillin) inhibition assay, SpoVD. The class given is biochemical.
Settings: not given
On the procedure:
FIG. 2 is a table of IC50 values of select $-lactam antibiotics against SpoVD, their percentage inhibition of sporulation, and the concentration at which they were tested (½ MIC).
FIGS. 4A-4F show chemical structures of DPO sporulation inhibitors, their biochemical inhibition against SpoVD and their in vitro sporulation inhibition, wherein * indicates >50%, ** indicates >90%, and ***>95%.
(§1) Reactions were performed in a 96-well polystyrene plate with a final volume of 60 μl at 37° C. in 1× tris-buffered saline (20 mM Tris, 150 mM NaCl). […] Protein was then diluted and added to the well for a final concentration of 1 μM and incubated for 15 minutes at 37° C. 1 μL of bocillin (BOCILLIN™ FL Penicillin, Sodium Salt, Thermo Fisher Scientific) was added to each well for a final concentration of 20 μM, and incubated for 10 minutes at 37° C. Reactions were killed with 10 μL of 6×SDS loading buffer and pooled or directly loaded onto a 15-well Novex Wedgewell 8% Tris-Glycine Gels and ran at 175 V for ˜1 hour. Gels were then imaged (Biorad) for 6 seconds with the fluorescein blot filter setting and analyzed using ImageJ. All values were normalized to background intensity and divided by the average of three control intensities (no inhibitor) for % inhibition value. Assays were performed in duplicate or triplicate and IC50 values were calculated using a 3-parameter nonlinear regression.
(§2) The coding sequence corresponding to the soluble constructs of CDR20291_1067 (PBP3), CDR20291_0985 (PBP2) and CDR20291_2544 (CdSpoVD) were amplified from C. difficile R20291 genomic DNA The expression vector was modified from pETGST, in which the thrombin cleavage site was replaced by TEV (named pETGSTTEV) or ULP1 (named pETGSTSUMO) cleavage site. The vector was digested and the PCR fragments for each protein was inserted into the multi-clone site accordingly. SpovD 38-583 inserted into the NheI/XhoI site of the pETGSTSUMO vector. Cloned vector was then transformed into BL21(DE3) pLysS Escherichia coli (E. coli). Standard overnight cultures were grown in LB media containing chloramphenicol and kanamycin and used to inoculate 1 L LB cultures.
(§3) Cultures were grown until the optical density (OD600) reached ˜0.7. Protein expression was then induced with 0.5 mM isopropyl-β-d-thiogalactopyranoside (IPTG) overnight at 20° C. Cells were harvested via centrifugation at 4000×g for 10 minutes at 4° C. The cell pellet was suspended with a solution of 20 mM Tris pH 8.0, 200 mM NaCl, 20 mM imidazole, and one dissolved Thermo Scientific™ Pierce Protease Inhibitor Tablets. Cells were lysed with a sonicator using a 10 second sonication/15 second rest cycle for 15 minutes. Cell lysate was centrifuged at 45,000×g for 35 minutes and supernatant was loaded onto a HisTrap affinity column (GE Healthcare). A linear gradient of buffer B (20 mM Tris pH 8.0, 300 mM NaCl, 500 mM imidazole, and 10% glycerol) was applied to elute the recombinant protein which usually occurred at 30% buffer B. These fractions were pooled and buffer exchanged three times into protease buffer (20 mM Tris pH 8.0, 10% glycerol) using an Amicon Ultra centrifugal filter (Sigma-Aldrich). Purified His6-tagged TEV protease was added to all proteins at a 1:20 ratio except for CdSpoVD and incubated overnight at 4° C. Pure His6-tagged ULP1 protease was added to CdSpoVD at 1:20 ratio and incubated overnight at 4° C. The digested protein was re-loaded onto the HisTrap affinity column. Flowthrough was collected, concentrated, and loaded to a HiLoad 16/60 Superdex 75 size exclusion column (GE Healthcare) where it ran at a flow rate of 0.5 ml/min. Peak fractions were combined and purity assessed (>95%) with gel-electrophoresis. The identity of each enzyme was independently characterized with gel-electrophoresis, native-mass spectrometry, bocillin or nitrocefin binding, and/or X-ray crystallography.
Turning to `CC1(C)S[C@@H]2[C@H](NC(=O)[C@H](N)c3ccccc3)C(=O)N2[C@H]1C(=O)O` [Ampicillin], the 50% inhibitory concentration (IC50) turned out to be 2.54 µM.

Consider `C[C@H]1[C@H](NC(=O)/C(=N\OC(C)(C)C(=O)O)c2csc(N)n2)C(=O)N1S(=O)(=O)O` [Aztreonam], for which the midpoint of inhibition, the IC50, lay at 1.36 µM.

Turning to `CC(=O)OCC1=C(C(=O)O)N2C(=O)[C@@H](NC(=O)Cc3cccs3)[C@H]2SC1` [Cefalothin], the concentration for half-maximal inhibition (IC50) was determined as 0.27 µM.

Compound `CC(C)(O/N=C(\C(=O)N[C@@H]1C(=O)N2C(C(=O)[O-])=C(C[n+]3ccccc3)CS[C@H]12)c1csc(N)n1)C(=O)O` [Ceftazidime] displayed an IC50 of 2.47 µM.

Still in this test, the particulars now being: FIG. 2; 1 μM protein, 15 min preincubation at 37° C., 20 μM bocillin; read-out: SpoVD IC50.
`NC(=O)[C@@H]1CC[C@@H]2CN1C(=O)N2OS(=O)(=O)O` [Avibactam]: the IC50 came out at 165 µM.

Turning to `CO/N=C(\C(=O)N[C@@H]1C(=O)N2C(C(=O)O)=C(COC(C)=O)CS[C@H]12)c1csc(N)n1` [Cefotaxime], the IC50 stood at 7.83 µM.

As for `CO[C@@]1(NC(=O)Cc2cccs2)C(=O)N2C(C(=O)O)=C(COC(N)=O)CS[C@@H]21` [Cefoxitin], the IC50 was found to be 0.94 µM.

As to `Nc1nc(/C(=N/O)C(=O)N[C@@H]2C(=O)N3C(C(=O)O)=C(/C=C4\CCN([C@@H]5CCNC5)C4=O)CS[C@H]23)ns1` [Ceftobiprole], the IC50 is 62.5 µM.

Consider `Cc1onc(-c2ccccc2Cl)c1C(=O)N[C@@H]1C(=O)N2[C@@H]1SC(C)(C)[C@@H]2C(=O)O` [Cloxacillin], for which the IC50 amounted to 6.12 µM.

In the case of `O=C(Nc1ccccc1)[C@@H]1CC[C@@H]2CN1C(=O)N2OS(=O)(=O)O` [Spo6], the IC50 turned out to be 103 µM.

Take `O=C(NCc1ccccc1)[C@@H]1CC[C@@H]2CN1C(=O)N2OS(=O)(=O)O` [Spo7]: the IC50 is 53.1 µM.

For `O=C(CNC(=O)[C@@H]1CC[C@@H]2CN1C(=O)N2OS(=O)(=O)O)c1ccccc1` [Spo8], the IC50 came to 63.8 µM.

The test is the same for the next values; noted with them: FIGS. 4A-4F; 1 μM protein, 15 min preincubation at 37° C., 20 μM bocillin; read-out: SpoVD IC50.
`O=C(Nc1ccccc1)[C@H](NC(=O)[C@@H]1CC[C@@H]2CN1C(=O)N2OS(=O)(=O)O)c1ccccc1` [Spo9]: the IC50 stood at 13 µM.

In the case of `O=C(Nc1ccccc1)[C@@H](Cc1ccccc1)NC(=O)[C@@H]1CC[C@@H]2CN1C(=O)N2OS(=O)(=O)O` [Spo10], the IC50 came to 3.92 µM.

The next test deals with T2, PBP3 (CDR20291_1067; soluble construct) (Clostridioides difficile, UniProt A0A9R0CE13).
T2 construct: modified pETGST vector with TEV site, E. coli BL21(DE3) pLysS; tag removed with TEV
T2 sequence (A0A9R0CE13 entry or part of it): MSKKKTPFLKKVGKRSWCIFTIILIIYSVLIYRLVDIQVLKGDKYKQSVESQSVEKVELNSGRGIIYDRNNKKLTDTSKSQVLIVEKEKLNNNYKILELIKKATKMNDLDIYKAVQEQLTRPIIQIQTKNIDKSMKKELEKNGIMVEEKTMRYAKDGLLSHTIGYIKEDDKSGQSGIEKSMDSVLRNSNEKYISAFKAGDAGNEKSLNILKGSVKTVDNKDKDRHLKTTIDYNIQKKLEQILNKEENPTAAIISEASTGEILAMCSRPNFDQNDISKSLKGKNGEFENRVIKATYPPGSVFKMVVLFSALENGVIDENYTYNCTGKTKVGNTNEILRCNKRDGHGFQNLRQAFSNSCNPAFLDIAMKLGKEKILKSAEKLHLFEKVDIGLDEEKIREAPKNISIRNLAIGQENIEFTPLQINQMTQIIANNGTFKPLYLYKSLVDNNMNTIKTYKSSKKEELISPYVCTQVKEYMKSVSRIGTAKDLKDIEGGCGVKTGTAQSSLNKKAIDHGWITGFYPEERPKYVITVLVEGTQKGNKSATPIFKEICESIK
Description: Bacillin (bocillin) inhibition assay, PBP3. The class given is biochemical. The settings on record: FIGS. 6A-6F; 1 μM protein, 15 min preincubation at 37° C., 20 μM bocillin. On the procedure: FIGS. 6A-6F show the crystal structure of PBP3 and the chemical structures of DBO sporulation inhibitors, wherein * indicates >50%, ** indicates >90%, and ***>95%.
as §1, §2
as §3, with “The identity of each enzyme was independently characterized with gel-electrophoresis, native-mass spectrometry, bocillin or nitrocefin binding, and/or X-ray crystallography.” left out
Compound `NC(=O)[C@@H]1CC[C@@H]2CN1C(=O)N2OS(=O)(=O)O` [Avibactam] returned an IC50 of 5.38 µM.

Turning to `O=C(Nc1ccccc1)[C@@H]1CC[C@@H]2CN1C(=O)N2OS(=O)(=O)O` [Spo6], the IC50 came to 2.01 µM.

Compound `O=C(Nc1ccccc1)[C@H](NC(=O)[C@@H]1CC[C@@H]2CN1C(=O)N2OS(=O)(=O)O)c1ccccc1` [Spo9] displayed a 50% inhibitory concentration (IC50) of 4.86 µM.

For `O=C(Nc1cccc2ccccc12)[C@@H]1CC[C@@H]2CN1C(=O)N2OS(=O)(=O)O` [Spo11], the IC50 is 2.24 µM.

The compound `O=C(Nc1ccc(-n2cccn2)cc1)[C@@H]1CC[C@@H]2CN1C(=O)N2OS(=O)(=O)O` [Spo12] displayed an IC50 of 0.69 µM.

In general, IC50 refers to the midpoint of a concentration-inhibition curve.
